In EP1717249A1, “Peptides containing a cholesterol recognition sequence and their uses” (GEORGETOWN UNIVERSITY, priority 1998, dated 1999):

Columns and labels:
[1] = target: T1, recombinant mPBR (Mus musculus, UniProt P50637); experiment: 3H-PK 11195 radioligand binding to recombinant PBR (wild-type and mutated) expressed in IPTG-induced E. coli; conditions: 3H-PK 11195 binding to IPTG-induced bacteria expressing mouse PBR, Scatchard analysis
T1 construct: made in house; host or cells: Escherichia coli BL21(DE3), IPTG-induced
Description: Construction of the mouse PBR expression vector (pET15bPBR) and Expression of Recombinant PBR in bacteria- The pET system (Novagen, Madison, WI) was used to express the MA-10 mouse PBR (mPBR) recombinant protein. […] This mPBR fragment was inserted into pET15b vector and linearized with NdeI and XhoI downstream of the T71ac promoter. Recombinant mPBR expression vector was used to transform the BL21(DE3) Escherichia coli strain (Novagen) where the expression of recombinant mPBR protein was induced by 1mM isopropyl-1-thiol-β-D-galactopyranoside (IPTG). PBR protein expression was monitored by SDS-PAGE followed by Coomassie Blue staining or immunoblot analysis using anti-PBR antiserum (Amri et al. 1996, supra). Binding specificity of the IPTG-induced PBR in E. coli was determined in binding studies where specific binding of ^3H-PK 11195 (1.0 nM) was measured in the presence of the indicated concentrations of the indicated ligands.
Radioligand binding assays- ^3H-1-(2-chlorophenyl)-N-methyl-N-(1-methyl-propyl)-3-isoquinolinecarboxamide (PK 11195) binding studies were performed as we previously described (Papadopoulos, V. et al. 1990, J. Biol. Chem. 265: 3772-3779; Garnier, M. et al. 1994, Mol. Pharm. 45:201-211). […]

[2] = target: T2, PBR (Mus musculus, UniProt P50637); experiment: Ligand-induced release of 3H-cholesterol from membranes of IPTG-induced transformed bacteria; format: biochemical; conditions: cholesterol-loaded bacterial membranes (Fig. 3F)
T2 construct: made in house; host or cells: Escherichia coli BL21(DE3), IPTG-induced
Protocol: ^3H-Cholesterol uptake by E. coli cells was examined using the indicated concentrations of control or IPTG-treated transformed bacteria incubated in the presence of 6.7 nM ^3H-cholesterol (50.0 Ci/mmol) for 60 min at 37°C. Specific cholesterol uptake is defined as IPTG-induced minus basal values.

[3] = test system: isolated mitochondria; conditions: cited from earlier work

## CCC(C)N(C)C(=O)c1cc2ccccc2c(-c2ccccc2Cl)n1 (stereo not drawn) [PK 11195, 1-(2-chlorophenyl)-N-methyl-N-(1-methyl-propyl)-3-isoquinolinecarboxamide]
[1]
  Bmax: 0.23 pmol/mg protein
[2]
  3H-cholesterol released from cholesterol-loaded bacterial membranes: cholesterol was liberated from the membranes

## TTN: naturally occurring processing product of DBI, the triakontatetrapeptide TTN (DBI17-50) (KTKPSDEEMLFIYGHYKQATVGDINTERPGMLDF; Triakontatetraneuropeptide; UniProt P07108 17-50, looked up, fragment)
[3]
  intramitochondrial cholesterol transport and pregnenolone formation (mitochondrial steroidogenesis): able to mimic the effect of DBI
